Measured values taken from patent US20190307729A1, “ANTIMICROBIAL COMPOUNDS AND METHODS FOR USE THEREOF” (VERSITECH LIMITED, priority 2016, published 2019).
Read-outs that look alike come from different tables or passages of the source.

Assays:
S. aureus Mu3 strain = experiment: Microdilution checkerboard assay of compound with aminoglycosides; conditions: for Combinatory effect with gentamicin: checkerboard
Description: The Checkerboard assay is performed in 96-well microtitre plates. […] The antibiotics are 2 fold serially diluted along the ordinate, the compounds are added along the abscissa to generate the checkerboard concentration gradients between the compounds and the antibiotics. Bacterial culture are topped and incubated overnight. Bacterial growth is monitored by the OD absorbance at 595 nm.
The concentration tested range was from 500M to 0.98 μM. MICs higher than 500M were not determined.

Vero cells = experiment: Cytotoxicity assay (MTT); type: cell-based; conditions: for Cytotoxicity: MTT assays in Vero cells
Description: MTT assays are performed for selected compounds on Vero cells according to product instructions.

S. aureus Mu3 = experiment: Secondary screening of compound 13 analogues in combination with gentamicin (growth by OD 595 nm); conditions: for activity at 5 µM / activity at 20 µM / activity at 50 µM / inhibition at 20 µM / inhibition at 50 µM: Staphylococcus aureus; for activity at 5 µM / activity at 20 µM / activity at 50 µM: MU3, 16 h; for 20 μM + 200 μg/ml Gentamicin Growth inhibition Percentage: 20 μM compound + 200 μg/ml gentamicin; for 50 μM + 200 μg/ml Gentamicin Growth inhibition Percentage: 50 μM compound + 200 μg/ml gentamicin
Description: All screening is done in 384-well polystyrene microtiter plates (Greiner Bio-One). Overnight culture of Mu3 is washed with BHI medium 3 times, diluted and plated to give 5×10^5 CFU/mL per well. The plates are incubated at 37° C. for 16 hours and growth is monitored by optical density reading at 595 nm using an automated DTX 880 multimode detector. Screening using BHI medium is designated as the background screen. […] Sub MIC concentration of antibiotics is selected for screening. BHI containing a final concentration for gentamicin 156.25 μg/mL is used correspondingly for individual experiments. […] Screening results with various antibiotics is normalized with the background screening to calculate the percentage of growth inhibition.
Identical experimental procedures are performed as primary screening procedures, except different concentrations of selected compound are tested.
Secondary like screening was performed with different concentrations of each analogue compounds were tested with different gentamicin concentration, 50 μM, 20 μM and 5 μM compound concentration were used against, BHI containing, 0 μg/ml, 100 μg/ml and 200 μg/ml gentamicin.

hla promoter [1] = experiment: Paper disc diffusion and lux assay (hla promoter lux reporter); type: cell-based, S. aureus
Description: A single colony of bioluminescent S. aureus carrying the hla-promoter lux reporting system was resuspended in 200 μl of sterile water, diluted 1000-fold into 0.7% (w/v) BHI agar and overlaid onto BHI agar plates. 10 μl of the 50 mM analogues compounds dissolved in DMSO were impregnated to paper disc and placed on the lawn of bacteria. The plates were incubated overnight at 37° C. The luminescence was detected with Xenogen IVIS 100 in vivo imaging system (Xenogen, Alameda, Calif.).

S. aureus = experiment: MIC of compound 3 and analogues (Table 7, strain not given)
hla promoter [2] = experiment: Paper disc diffusion and lux assay (hla promoter lux reporter); type: cell-based, S. aureus; conditions: each compound used at 25 μM
[3] = MU3, read-out: 20 μM + 200 μg/ml Gentamicin Growth inhibition Percentage
[4] = MU3, read-out: 50 μM + 200 μg/ml Gentamicin Growth inhibition Percentage
[5] = [Cpd] 5 μM, [Genta] 100 ug/ml, relative to DMSO = 1
[6] = [Cpd] 5 μM, [Genta] 200 ug/ml, relative to DMSO = 1
[7] = [Cpd] 20 μM, [Genta] 100 ug/ml, relative to DMSO = 1
[8] = [Cpd] 20 μM, [Genta] 200 ug/ml, relative to DMSO = 1
[9] = [Cpd] 50 μM, [Genta] 100 ug/ml, relative to DMSO = 1
[10] = [Cpd] 50 μM, [Genta] 200 ug/ml, relative to DMSO = 1
[11] = read-out: relative growth, [Cpd] 5 μM, BHI only (no gentamicin), relative to DMSO = 1
[12] = read-out: relative growth, [Cpd] 20 μM, BHI only (no gentamicin), relative to DMSO = 1
[13] = read-out: relative growth, [Cpd] 50 μM, BHI only (no gentamicin), relative to DMSO = 1
[14] = [Cpd] 5 μM, BHI only (no gentamicin), relative to DMSO = 1
[15] = [Cpd] 20 μM, BHI only (no gentamicin), relative to DMSO = 1
[16] = [Cpd] 50 μM, BHI only (no gentamicin), relative to DMSO = 1

SMILES	activity at 5 µM (S. aureus Mu3; read-out: relative growth) [%]	activity at 20 µM (S. aureus Mu3; read-out: relative growth) [%]	activity at 50 µM (S. aureus Mu3; read-out: relative growth) [%]	inhibition at 20 µM (S. aureus Mu3; [3]) [%]	inhibition at 50 µM (S. aureus Mu3; [4]) [%]	relative growth (S. aureus Mu3; [5])	relative growth (S. aureus Mu3; [6])	relative growth (S. aureus Mu3; [7])	relative growth (S. aureus Mu3; [8])	relative growth (S. aureus Mu3; [9])	relative growth (S. aureus Mu3; [10])	also measured
O=C(O)CN1C(=O)/C(=C/c2cccc(OCc3ccc(Cl)cc3Cl)c2)SC1=S [Compound 17]	99	74	43	91	87	*0.35	*0.1	*0.09	*0.09	*0.14	*0.13	Combinatory effect with gentamicin (S. aureus Mu3 strain): Potentiating; combined effect with gentamicin in inhibiting growth (S. aureus Mu3 strain): potentiating activities; combined effect with gentamicin in inhibiting growth (S. aureus Mu3 strain; listed as compound 17): potentiating effect; cytotoxicity from Vero cell MTT assays (Vero cells): high cytotoxicity; Cytotoxicity (Vero cells): High
O=C(O)CN1C(=O)/C(=C/c2cccc(OCc3ccccc3Cl)c2)SC1=S [Compound 19]	99	91	76	91	92	0.96	0.83	*0.1	*0.09	*0.09	*0.08	Combinatory effect with gentamicin (S. aureus Mu3 strain): Potentiating; combined effect with gentamicin in inhibiting growth (S. aureus Mu3 strain): promising potentiating effect; combined effect with gentamicin in inhibiting growth (S. aureus Mu3 strain; listed as compound 19): potentiating effect; cytotoxicity from Vero cell MTT assays (Vero cells): less cytotoxicity; Cytotoxicity (Vero cells): Medium
CCOc1cc(/C=C2\SC(=S)N(CC(=O)O)C2=O)ccc1OCc1ccc(Cl)cc1 [Compound 20]	101	78	91	91	86	0.96	0.88	*0.14	*0.09	*0.17	*0.14	Combinatory effect with gentamicin (S. aureus Mu3 strain): Potentiating; combined effect with gentamicin in inhibiting growth (S. aureus Mu3 strain): promising potentiating effect; combined effect with gentamicin in inhibiting growth (S. aureus Mu3 strain; listed as compound 20): potentiating effect; cytotoxicity from Vero cell MTT assays (Vero cells): less cytotoxicity; Cytotoxicity (Vero cells): Medium/Low
COC(=O)c1ccccc1 [Compound 29]	–	–	–	–	–	0.94	0.89	0.67	*0.39	*0.11	*0.08	20 μM + 200 μg/ml Gentamicin Growth inhibition Percentage (S. aureus Mu3; S. aureus Mu3, 20 µM): 61%; 50 μM + 200 μg/ml Gentamicin Growth inhibition Percentage (S. aureus Mu3; S. aureus Mu3, 50 µM): 92%; activity at 5 µM (S. aureus Mu3; [11]): 96%; activity at 20 µM (S. aureus Mu3; [12]): 90%; activity at 50 µM (S. aureus Mu3; [13]): 89%
CCOc1ccc(/C=C2\SC(=S)N(CC(=O)O)C2=O)cc1 [Compound 31]	99	96	98	23	39	0.98	0.95	0.98	0.77	0.98	0.61	–
CCOc1cc(/C=C2\SC(=S)N(CC(=O)O)C2=O)ccc1OCc1ccc(Cl)c(Cl)c1 [Compound 34]	112	109	113	67	43	0.9	*0.24	0.67	*0.33	1.16	0.57	–
COc1cc(/C=C2\SC(=S)N(CC(=O)O)C2=O)ccc1OCc1ccc(Br)cc1 [Compound 44]	103	103	98	17	53	1.02	0.83	0.99	0.83	0.97	0.47	–
CCCOc1ccc(/C=C2\SC(=S)N(CC(=O)O)C2=O)cc1 [Compound 48]	98	95	87	36	69	0.97	0.96	0.97	0.64	0.8	*0.31	repression in hla promoter lux reporter assay (hla promoter [1]): significant repression
COc1cc(C=C2SC(=S)N(CC(=O)O)C2=O)ccc1OCc1ccc(F)cc1Cl [Compound 50]	–	–	–	–	–	0.91	0.87	0.82	0.64	0.9	0.6	20 μM + 200 μg/ml Gentamicin Growth inhibition Percentage (S. aureus Mu3; S. aureus Mu3): 36%; 50 μM + 200 μg/ml Gentamicin Growth inhibition Percentage (S. aureus Mu3; S. aureus Mu3): 40%; relative growth (S. aureus Mu3; [14]): 0.93; relative growth (S. aureus Mu3; [15]): 0.82; relative growth (S. aureus Mu3; [16]): 0.96
COCc1ccccc1 [Compound 52]	–	–	–	–	–	0.96	0.93	0.89	0.69	0.74	*0.36	activity at 5 µM (S. aureus Mu3; [11]): 95%; activity at 20 µM (S. aureus Mu3; [12]): 86%; activity at 50 µM (S. aureus Mu3; [13]): 76%; inhibition at 20 µM (S. aureus Mu3; MU3, read-out: 20 μM + 200 μg/ml Gentamicin Growth inhibition Percentage, 20 μM compound + 200 μg/ml gentamicin, S. aureus Mu3): 31%; inhibition at 50 µM (S. aureus Mu3; MU3, read-out: 50 μM + 200 μg/ml Gentamicin Growth inhibition Percentage, 50 μM compound + 200 μg/ml gentamicin, S. aureus Mu3): 64%
CC(C(=O)O)N1C(=O)/C(=C/c2ccc(Cl)cc2)SC1=S (stereo not drawn) [Compound 53]	93	89	88	24	62	0.92	0.89	0.9	0.76	0.84	*0.38	–
O=C(O)CN1C(=O)/C(=C/c2cccc(OCc3ccccc3F)c2)SC1=S [Compound 63]	97	93	84	65	92	0.97	0.88	0.67	*0.35	*0.11	*0.08	–
COC(=O)CN1C(=O)C(=Cc2ccc(OCc3ccccc3)cc2)SC1=S [Compound 69]	–	–	–	–	–	0.97	0.98	0.56	*0.11	*0.27	*0.23	20 μM + 200 μg/ml Gentamicin Growth inhibition Percentage (S. aureus Mu3; S. aureus Mu3): 89%; 50 μM + 200 μg/ml Gentamicin Growth inhibition Percentage (S. aureus Mu3; S. aureus Mu3): 77%; relative growth (S. aureus Mu3; [14]): 0.97; relative growth (S. aureus Mu3; [15]): 1.02; relative growth (S. aureus Mu3; [16]): 0.55
COc1ccc(/C=C2/SC(=S)N(CCC(N)=O)C2=O)cc1 [Compound 87]	–	–	–	–	–	–	–	–	–	–	–	MIC (S. aureus): 500 µM; repression in hla promoter lux reporter assay (hla promoter [1]): hla promoter lux repression; Relative lux signal (hla promoter [2]): 0.2657
